Experimental data from US9139577B2, “Sulfoximine substituted quinazolines for pharmaceutical compositions” (Boehringer Ingelheim International GmbH, priority 2013, dated 2015).

Target: MNK2a (Homo sapiens (Human), UniProt Q9HBH9)
Experiment: MNK2a in vitro kinase assay (Assay 2), ADP-Glo
Type: biochemical
Details: read-out: MNK2 IC50
Experimental: B. MNK2a In vitro Kinase Assay (Assay 2)
ASSAY SETUP: The inhibition of kinase activity of MNK2a was assessed using pre-activated GST-MNK2a. The white, 384-well OptiPlate F plates were purchased from PerkinElmer. The ADP-Glo Kinase Assay (including ultra pure ATP) was purchased from Promega (V9103). Activated MNK2a was obtained as described in WO2011/104340. […] ID No. 5 of WO 2011/104340 by the C-terminal —CONH2 group, was purchased from Thermo Fisher Scientific. All other materials were of highest grade commercially available. Compounds are tested in either serial dilutions or single dose concentrations. The compound stock solutions are 10 mM in 100% DMSO The serial compound dilutions are prepared in 100% DMSO followed by 1:27.3 intermediate dilution in assay buffer. The final DMSO concentration in assay will be <3%. In the 384-well plates 3 μl of test compound from the intermediate dilution is mixed with 4 μl of the activated MNK2 enzyme (final concentration of 10 nM) and 4 μl of the peptide (final concentration of 25 μM)/ultra pure ATP (final concentration of 20 μM), all dissolved in assay buffer. This step is followed by an incubation time of 90 min, then 10 μl of ADP Glo reagent are added, followed by 40 min of incubation. Then 20 μl of kinase detection reagent are admixed. The plates are sealed and after an incubation period of 30 min, the luminescence signal is measured in an Envision reader to determine the amount of produced ADP. All incubation steps are performed at room temperature. The assay buffer consists of 20 mM HEPES, 2 mM DTT, 0.01% BSA, 20 mM MgCl2 and 0.1% Pluronic F-127.
The luminescent signal generated is proportional to the ADP concentration produced and is correlated with activated MNK2 activity. The analysis of the data is performed by the calculation of the percentage of ATP consumption of activated MNK2 in the presence of the test compound compared to the consumption of ATP in the presence of activated MNK2 without compound. (RLU(sample)−RLU(low control))*100/(RLU(high value)−RLU(low control)) [RLU=relative luminescence units]
[…] values based on dose response curves are calculated with the AssayExplorer software.

Sequence of MNK2a (Q9HBH9 whole entry): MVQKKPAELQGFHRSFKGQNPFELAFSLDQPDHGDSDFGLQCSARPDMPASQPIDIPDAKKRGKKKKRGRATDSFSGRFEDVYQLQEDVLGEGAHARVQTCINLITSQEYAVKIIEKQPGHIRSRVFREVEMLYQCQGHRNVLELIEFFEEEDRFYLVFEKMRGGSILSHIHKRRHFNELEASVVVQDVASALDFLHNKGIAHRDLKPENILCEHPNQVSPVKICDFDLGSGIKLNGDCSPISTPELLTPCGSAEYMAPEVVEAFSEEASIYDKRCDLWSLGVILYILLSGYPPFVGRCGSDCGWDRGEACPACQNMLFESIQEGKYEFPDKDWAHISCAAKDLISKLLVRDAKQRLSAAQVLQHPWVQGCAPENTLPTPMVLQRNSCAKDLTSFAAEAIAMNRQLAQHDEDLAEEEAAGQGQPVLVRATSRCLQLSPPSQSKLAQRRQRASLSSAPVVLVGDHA

Cc1cc([C@@H](C)Oc2cc(F)ccc2Nc2ncnc3cc(N=S4(=O)CCNCC4)cc(C)c23)on1 [Example 2.016]
IC50: 1 nM

C[C@@H](Oc1cc(F)ccc1Nc1ncnc2cc(N=S(C)(C)=O)cc(F)c12)C(=O)NCC(F)F [Example 4.133]
IC50: 4 nM

Cc1cc(N=S2(=O)CCC2)cc2ncnc(Nc3ccc(Cl)cc3O[C@H](C)C(=O)NCC(F)(F)F)c12 [Example 4.122]
IC50: 1 nM

Cc1cc(N=S(C)(C)=O)cc2ncnc(Nc3ccc(F)cc3OCC#N)c12 [Example 3.005]
IC50: 1 nM

COc1cc(N=S(C)(C)=O)cc2ncnc(Nc3ccc(F)cc3O[C@H](C)C(=O)NCC(F)(F)F)c12 [Example 3.040]
IC50: 6 nM

Cc1cc(N=S2(=O)CCCC2)cc2ncnc(Nc3ccc(F)cc3O[C@H](C)C(=O)NCC#N)c12 [Example 4.007]
IC50: 2 nM

Cc1cc(N=S2(=O)CCC2)cc2ncnc(Nc3cccnc3O[C@H](C)C(=O)NCC(F)F)c12 [Example 2.021]
IC50: 2 nM

COC(=O)N1CCS(=O)(=Nc2cc(C)c3c(Nc4ccc(F)cc4O[C@H](C)c4cc(C)no4)ncnc3c2)CC1 [Example 5.013]
IC50: 2 nM

Cc1noc(C(C)Oc2cc(F)ccc2Nc2ncnc3cc(N=S(C)(C)=O)cc(C)c23)n1 (centres unmarked) [Example 3.036]
IC50: 9 nM

Cc1cc(N=S(C)(C)=O)cc2ncnc(Nc3ccc(F)cc3OC(C)C3CCCO3)c12 (centres unmarked) [Example 3.010]
IC50: 23 nM

CCOc1cc(N=S2(=O)CCC2)cc2ncnc(Nc3ccc(Cl)cc3O[C@H](C)C(=O)N[C@@H](C)C#N)c12 [Example 4.095]
IC50: 2 nM

Cc1cc(N=S2(=O)CCC2)cc2ncnc(Nc3ccc(F)cc3O[C@H](C)C(=O)NC(C(F)(F)F)C(F)(F)F)c12 [Example 2.041]
IC50: 1 nM

Cc1cc(N=S(C)(C)=O)cc2ncnc(Nc3cccnc3O[C@H](C)C(=O)NCC(F)(F)F)c12 [Example 2.013]
IC50: 2 nM

COC(=O)N1CC2(C1)CS(=O)(=Nc1cc(C)c3c(Nc4ccc(F)cc4O[C@H](C)C(=O)NCC(F)(F)F)ncnc3c1)C2 [Example 2.032]
IC50: 1 nM

Cc1cc(N=S2(=O)CCC2)cc2ncnc(Nc3ccc(Cl)cc3O[C@H](C)C(=O)NCC(F)F)c12 [Example 4.111]
IC50: 1 nM

Cc1cc(N=S2(=O)CCC2)cc2ncnc(Nc3ccc(Cl)cc3O[C@H](C)C(=O)N[C@@H](C)C(F)(F)F)c12 [Example 4.079]
IC50: 1 nM

Cc1cc(N=S2(=O)CCCC2)cc2ncnc(Nc3ccc(F)cc3OC(C)C(C)(C)C#N)c12 (centres unmarked) [Example 2.007]
IC50: 3 nM

C[C@@H](C#N)NC(=O)[C@@H](C)Oc1cc(F)ccc1Nc1ncnc2cc(N=S3(=O)CCC3)cc(C(F)F)c12 [Example 4.102]
IC50: 2 nM

Cc1cc(N=S(C)(C)=O)cc2ncnc(Nc3cccnc3OC(C)C(F)(F)F)c12 (centres unmarked) [Example 1.017]
IC50: 12 nM

Cc1cc(N=S(C)(C)=O)cc2ncnc(Nc3ccc(F)cc3OC(C)Cn3cccn3)c12 (centres unmarked) [Example 3.034]
IC50: 58 nM

CC(C)Oc1ncccc1Nc1ncnc2cc(N=S(C)(C)=O)cc(F)c12 [Example 2.015]
IC50: 190 nM

Cc1cc(N=S2(=O)CCC2)cc2ncnc(Nc3ccc(F)cc3O[C@H](C)C(=O)N(CC(F)(F)F)CC(F)(F)F)c12 [Example 3.052]
IC50: 3 nM

Cc1cc(N=S2(=O)CCCC2)cc2ncnc(Nc3ccc(F)cc3O[C@H](C)C(=O)N(C)C3CCCC3)c12 [Example 4.026]
IC50: 3 nM

Cc1cc(N=S(C)(C)=O)cc2ncnc(Nc3ccc(C#N)cc3OC(C)C(F)(F)F)c12 (centres unmarked) [Example 1.001]
IC50: 17 nM

Cc1cc(N=S(C)(C)=O)cc2ncnc(Nc3ccc(F)cc3O[C@H](C)C(=O)NCC#N)c12 [Example 4.039]
IC50: 1 nM

Cc1cc(N=S(C)(C)=O)cc2ncnc(Nc3ccc(F)cc3O[C@H](C)C(=O)NCC(F)F)c12 [Example 4.036]
IC50: 1 nM

Cc1cc(N=S2(=O)CCC2)cc2ncnc(Nc3ccc(F)cc3O[C@H](C)C(=O)NCCCF)c12 [Example 4.144]
IC50: 2 nM

COc1cc(N=S2(=O)CCC2)cc2ncnc(Nc3ccc(F)cc3O[C@H](C)C(=O)N[C@@H](C)C(F)(F)F)c12 [Example 4.098]
IC50: 4 nM

C[C@H](NC(=O)[C@@H](C)Oc1cc(F)ccc1Nc1ncnc2cc(N=S3(=O)CCC3)cc(Cl)c12)C(F)(F)F [Example 4.096]
IC50: 1 nM

Cc1cc(N=S2(=O)CCC2)cc2ncnc(Nc3ccc(F)cc3O[C@H](C)C(=O)NCC#N)c12 [Example 4.103]
IC50: 1 nM

CC(Oc1ncccc1Nc1ncnc2cc(N=S(C)(C)=O)cc(F)c12)C(F)(F)F (centres unmarked) [Example 1.007]
IC50: 8 nM

Cc1cc(N=S2(=O)CCC2)cc2ncnc(Nc3ccc(F)cc3O[C@H](C)C(=O)NCCC(F)F)c12 [Example 4.116]
IC50: 2 nM

Cc1cc(N=S2(=O)CC3(COC3)C2)cc2ncnc(Nc3ccc(Cl)cc3O[C@H](C)C(=O)N[C@@H](C)C(F)(F)F)c12 [Example 2.045]
IC50: 1 nM

Cc1cc(N=S2(=O)CCC2)cc2ncnc(Nc3ccc(F)cc3O[C@H](C)C(=O)NC(CF)CF)c12 [Example 4.131]
IC50: 1 nM

COc1cc(N=S2(=O)CCC2)cc2ncnc(Nc3ccc(F)cc3O[C@H](C)C(=O)NCC(F)(F)F)c12 [Example 2.047]
IC50: 3 nM

C[C@@H](Oc1cc(F)ccc1Nc1ncnc2cc(N=S3(=O)CCC3)cc(F)c12)C(=O)NCCF [Example 4.117]
IC50: 3 nM

C[C@@H](Oc1ncccc1Nc1ncnc2cc(N=S(C)(C)=O)cc(F)c12)C(=O)NCC(F)(F)F [Example 2.031]
IC50: 10 nM

COc1cc(N=S2(=O)CCCC2)cc2ncnc(Nc3ccc(F)cc3O[C@H](C)C(=O)NCC(F)(F)F)c12 [Example 3.011]
IC50: 2 nM

Cc1cc(N=S2(=O)CCCC2)cc2ncnc(Nc3ccc(F)cc3O[C@H](C)C(=O)N3CCCC3)c12 [Example 4.006]
IC50: 5 nM

C[C@@H](Oc1cc(F)ccc1Nc1ncnc2cc(N=S(C)(=O)C3CCOCC3)cc(F)c12)C(=O)NCC(F)(F)F (some centres unmarked) [Example 2.025]
IC50: 7 nM

CCOc1cc(N=S2(=O)CCC2)cc2ncnc(Nc3ccc(F)cc3O[C@H](C)C(=O)NCC(F)(F)F)c12 [Example 6.003]
IC50: 4 nM

Cc1cc(N=S2(=O)CCC2)cc2ncnc(Nc3ccc(F)cc3O[C@H](C)C(=O)NCCC(F)(F)F)c12 [Example 4.089]
IC50: 1 nM

CCC(Oc1cc(F)ccc1Nc1ncnc2cc(N=S(C)(C)=O)cc(C)c12)C(=O)OC (centres unmarked) [Example 3.017]
IC50: 138 nM

C[C@@H](Oc1cc(F)ccc1Nc1ncnc2cc(N=S(C)(C)=O)cc(Cl)c12)C(=O)NCC(F)F [Example 4.080]
IC50: 2 nM

Cc1cc(N=S2(=O)CCC2)cc2ncnc(Nc3ccc(Cl)nc3O[C@H](C)C(=O)N[C@@H](C)C#N)c12 [Example 4.140]
IC50: 1 nM

C[C@@H](Oc1cc(F)ccc1Nc1ncnc2cc(N=S3(=O)CCC3)cc(C(F)F)c12)C(=O)NCC(F)(F)F [Example 4.110]
IC50: 2 nM

CC#CCNC(=O)[C@@H](C)Oc1cc(F)ccc1Nc1ncnc2cc(N=S(C)(C)=O)cc(C)c12 [Example 4.066]
IC50: 9 nM

Cc1cc(N=S(C)(C)=O)cc2ncnc(Nc3ccc(F)cc3O[C@H](C)C(=O)NC(CF)CF)c12 [Example 4.101]
IC50: 3 nM

Cc1cc(C(Oc2cc(F)ccc2Nc2ncnc3cc(N=S(C)(C)=O)cc(C)c23)C(F)(F)F)on1 (centres unmarked) [Example 1.010]
IC50: 17 nM

COc1cc(N=S2(=O)CCC2)cc2ncnc(Nc3ccc(Cl)cc3O[C@H](C)C(=O)NCC(F)(F)F)c12 [Example 4.087]
IC50: 2 nM

Cc1cc(N=S2(=O)CCCC2)cc2ncnc(Nc3cccnc3O[C@H](C)C(=O)NCC(F)(F)F)c12 [Example 2.022]
IC50: 2 nM

Cc1cc(N=S2(=O)CCC2)cc2ncnc(Nc3ccc(F)cc3O[C@H](C)C(=O)NCC(F)F)c12 [Example 4.141]
IC50: 1 nM

Cc1cc(N=S2(=O)CCC2)cc2ncnc(Nc3ccc(F)cc3O[C@H](CO)CF)c12 [Example 2.036]
IC50: 4 nM

Cc1cc(N=S2(=O)CCC2)cc2ncnc(Nc3ccc(F)cc3O[C@H](C)C(=O)NCC(F)(F)F)c12 [Example 4.139]
IC50: 1 nM

Cc1cc(N=S(C)(=O)C(C)C)cc2ncnc(Nc3ccc(F)cc3O[C@H](C)C(=O)NCC(F)(F)F)c12 (some centres unmarked) [Example 2.046]
IC50: 3 nM

CC(NC(=O)[C@@H](C)Oc1cc(F)ccc1Nc1ncnc2cc(N=S(C)(C)=O)cc(F)c12)C(F)F (some centres unmarked) [Example 4.083]
IC50: 8 nM

C[C@@H](Oc1cc(F)ccc1Nc1ncnc2cc(N=S3(=O)CCC3)cc(F)c12)C(=O)NCC#N [Example 4.097]
IC50: 1 nM

CCN(CC)C(=O)[C@@H](C)Oc1cc(F)ccc1Nc1ncnc2cc(N=S3(=O)CCCC3)cc(C)c12 [Example 4.025]
IC50: 3 nM

CC(NC(=O)[C@@H](C)Oc1cc(F)ccc1Nc1ncnc2cc(N=S3(=O)CCC3)cc(C(F)F)c12)C(F)F (some centres unmarked) [Example 4.146]
IC50: 4 nM
